Assay results taken from patent US9487515B2, “Compounds modulating c-fms and/or c-kit activity and uses therefor” (Plexxikon Inc., priority 2006, dated 2016).

Molecular target: c-kit (Homo sapiens, UniProt P10721)
Assay: c-kit assays of Examples 40 and 41 (AlphaScreen kinase assays at 10 and 100 μM ATP, 33P-ATP filter assay, M-07e SCF-stimulated proliferation and phosphorylation)

Chain of c-kit (P10721 with tags, fused parts or gaps): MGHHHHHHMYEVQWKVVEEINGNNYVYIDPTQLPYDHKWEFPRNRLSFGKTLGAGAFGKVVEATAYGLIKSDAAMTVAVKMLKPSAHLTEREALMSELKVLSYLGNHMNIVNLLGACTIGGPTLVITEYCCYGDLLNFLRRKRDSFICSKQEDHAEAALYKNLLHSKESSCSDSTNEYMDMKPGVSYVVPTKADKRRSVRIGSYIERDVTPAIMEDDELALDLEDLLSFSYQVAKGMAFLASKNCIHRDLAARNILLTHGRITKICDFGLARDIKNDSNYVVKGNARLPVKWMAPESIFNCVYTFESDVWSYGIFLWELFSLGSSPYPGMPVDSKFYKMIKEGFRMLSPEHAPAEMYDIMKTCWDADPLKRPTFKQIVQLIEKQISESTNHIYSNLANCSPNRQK

IC50 [nM] | Compound
< 1000 | FC(F)Oc1ccccc1CNc1ccc(Cc2c[nH]c3ncc(Cl)cc23)cn1 [P-0338, [5-(5-Chloro-1H-pyrrolo[2,3-b]pyridin-3-ylmethyl)-pyridin-2-yl]-(2-difluoromethoxy-benzyl)-amine]
< 1000 | COc1ccnc2[nH]cc(Cc3ccc(NCc4ccc(Cl)cc4)nc3)c12 [P-0010, [5-(4-Methoxy-1H-pyrrolo[2,3-b]pyridin-3-ylmethyl)-pyridin-2-yl]-(4-chloro-benzyl)-amine]
< 1000 | COc1cccc(CNc2nc(Cl)c(Cc3c[nH]c4ncc(Cl)cc34)s2)n1 [P-0199, [4-Chloro-5-(5-chloro-1H-pyrrolo[2,3-b]pyridin-3-ylmethyl)-thiazol-2-yl]-(6-methoxy-pyridin-2-ylmethyl)-amine]
< 1000 | c1ccc(CCNc2ccc(Cc3c[nH]c4ncccc34)cn2)cc1 [P-0211, Phenethyl-[5-(1H-pyrrolo[2,3-b]pyridin-3-ylmethyl)-pyridin-2-yl]-amine]
< 1000 | Fc1ccc(CNc2ncc(Cc3c[nH]c4ncccc34)cn2)c(Cl)c1 [P-0316, (2-Chloro-4-fluoro-benzyl)-[5-(1H-pyrrolo[2,3-b]pyridin-3-ylmethyl)-pyrimidin-2-yl]-amine]
< 1000 | COc1cnc2[nH]cc(Cc3ccc(NCc4ccc(C(F)(F)F)nc4)nc3F)c2c1 [P-0187, [6-Fluoro-5-(5-methoxy-1H-pyrrolo[2,3-b]pyridin-3-ylmethyl)-pyridin-2-yl]-(6-trifluoromethyl-pyridin-3-ylmethyl)-amine]
< 1000 | N#Cc1cnc2[nH]cc(Cc3ccc(NCc4ccccc4OC(F)(F)F)nc3)c2c1 [P-0321, 3-[6-(2-Trifluoromethoxy-benzylamino)-pyridin-3-ylmethyl]-1H-pyrrolo[2,3-b]pyridine-5-carbonitrile]
< 1000 | Fc1c(CNc2ncc(Cc3c[nH]c4ncccc34)cn2)cccc1C(F)(F)F [P-0309, (2-Fluoro-3-trifluoromethyl-benzyl)-[5-(1H-pyrrolo[2,3-b]pyridin-3-ylmethyl)-pyrimidin-2-yl]-amine]
< 1000 | CCCOc1ccccc1CNc1ccc(Cc2c[nH]c3ncccc23)cn1 [P-0357, (2-Propoxy-benzyl)-[5-(1H-pyrrolo[2,3-b]pyridin-3-ylmethyl)-pyridin-2-yl]-amine]
< 1000 | FC(F)Oc1ccccc1CNc1ncc(Cc2c[nH]c3ncc(Cl)cc23)cn1 [P-0390, [5-(5-Chloro-1H-pyrrolo[2,3-b]pyridin-3-ylmethyl)-pyrimidin-2-yl]-(2-difluoromethoxy-benzyl)-amine]
< 1000 | Fc1nc(NCc2ccc(C(F)(F)F)nc2)ccc1Cc1c[nH]c2ncc(Cl)cc12 [P-0186, [5-(5-Chloro-1H-pyrrolo[2,3-b]pyridin-3-ylmethyl)-6-fluoro-pyridin-2-yl]-(6-trifluoromethyl-pyridin-3-ylmethyl)-amine]
< 1000 | CCn1cc(CNc2nc(Cl)c(Cc3c[nH]c4ncc(Cl)cc34)s2)cn1 [P-0239, [4-Chloro-5-(5-chloro-1H-pyrrolo[2,3-b]pyridin-3-ylmethyl)-thiazol-2-yl]-(1-ethyl-1H-pyrazol-4-ylmethyl)-amine]
< 1000 | COc1ccc(Cc2c[nH]c3nccc(-c4ccsc4)c23)cn1 [P-0022, 3-(6-Methoxy-pyridin-3-ylmethyl)-4-thiophen-3-yl-1H-pyrrolo[2,3-b]pyridine]
< 1000 | Brc1cnccc1CNc1ccc(Cc2c[nH]c3ncccc23)cn1 [P-0214, (3-Bromo-pyridin-4-ylmethyl)-[5-(1H-pyrrolo[2,3-b]pyridin-3-ylmethyl)-pyridin-2-yl]-amine]
< 1000 | Cc1cnc2[nH]cc(Cc3ccc(NCc4ccccc4Cl)nc3)c2c1 [P-0279, (2-Chloro-benzyl)-[5-(5-methyl-1H-pyrrolo[2,3-b]pyridin-3-ylmethyl)-pyridin-2-yl]-amine]
< 1000 | COc1ccnc2[nH]cc(Cc3ccc(NCc4ccc(C(F)(F)F)cc4)nc3)c12 [P-0011, [5-(4-Methoxy-1H-pyrrolo[2,3-b]pyridin-3-ylmethyl)-pyridin-2-yl]-(4-trifluoromethyl-benzyl)-amine]
< 1000 | CCCS(=O)(=O)Nc1cccc(CNc2ccc(Cc3c[nH]c4ncccc34)cn2)c1F [P-0377, Propane-1-sulfonic acid (2-fluoro-3-{[5-(1H-pyrrolo[2,3-b]pyridin-3-ylmethyl)-pyridin-2-ylamino]-methyl}-phenyl)-amide]
< 1000 | N#Cc1cnc2[nH]cc(Cc3ccc(NCc4c(F)cccc4F)nc3)c2c1 [P-0277, 3-[6-(2,6-Difluoro-benzylamino)-pyridin-3-ylmethyl]-1H-pyrrolo[2,3-b]pyridine-5-carbonitrile]
< 1000 | N#Cc1cnc2[nH]cc(Cc3ccc(NCc4ccccc4Cl)nc3)c2c1 [P-0281, 3-[6-(2-Chloro-benzylamino)-pyridin-3-ylmethyl]-1H-pyrrolo[2,3-b]pyridine-5-carbonitrile]
< 1000 | COc1ccc(CNc2ccc(Cc3c[nH]c4ncc(C)cc34)cn2)cn1 [P-0282, (6-Methoxy-pyridin-3-ylmethyl)-[5-(5-methyl-1H-pyrrolo[2,3-b]pyridin-3-ylmethyl)-pyridin-2-yl]-amine]
< 1000 | Fc1c(CNc2ncc(Cc3c[nH]c4ncc(Cl)cc34)cn2)cccc1C(F)(F)F [P-0393, [5-(5-Chloro-1H-pyrrolo[2,3-b]pyridin-3-ylmethyl)-pyrimidin-2-yl]-(2-fluoro-3-trifluoromethyl-benzyl)-amine]
< 1000 | Fc1ccccc1CNc1ncc(Cc2c[nH]c3ncc(Cl)cc23)cn1 [P-0264, [5-(5-Chloro-1H-pyrrolo[2,3-b]pyridin-3-ylmethyl)-pyrimidin-2-yl]-(2-fluoro-benzyl)-amine]
< 1000 | Fc1cc(Cl)ccc1CNc1ncc(Cc2c[nH]c3ncccc23)cn1 [P-0314, (4-Chloro-2-fluoro-benzyl)-[5-(1H-pyrrolo[2,3-b]pyridin-3-ylmethyl)-pyrimidin-2-yl]-amine]
< 1000 | c1cc(CNc2ccc(Cc3c[nH]c4ncccc34)cn2)cc(N2CCOCC2)c1 [P-0126, (3-Morpholin-4-yl-benzyl)-[5-(1H-pyrrolo[2,3-b]pyridin-3-ylmethyl)-pyridin-2-yl]-amine]
< 1000 | Fc1ccc(F)c(CNc2ccc(Cc3c[nH]c4ncc(F)cc34)cn2)c1 [P-0329, (2,5-Difluoro-benzyl)-[5-(5-fluoro-1H-pyrrolo[2,3-b]pyridin-3-ylmethyl)-pyridin-2-yl]-amine]
< 1000 | COc1ccc(F)c(CNc2ccc(Cc3c[nH]c4ncccc34)cn2)c1 [P-0371, (2-Fluoro-5-methoxy-benzyl)-[5-(1H-pyrrolo[2,3-b]pyridin-3-ylmethyl)-pyridin-2-yl]-amine]
< 1000 | Clc1cnc2[nH]cc(Cc3cnc(NCc4ccccc4Cl)nc3)c2c1 [P-0263, (2-Chloro-benzyl)-[5-(5-chloro-1H-pyrrolo[2,3-b]pyridin-3-ylmethyl)-pyrimidin-2-yl]-amine]
< 1000 | Fc1cccc(CNc2ccc(Cc3c[nH]c4ncccc34)cn2)c1F [P-0362, (2,3-Difluoro-benzyl)-[5-(1H-pyrrolo[2,3-b]pyridin-3-ylmethyl)-pyridin-2-yl]-amine]
< 1000 | COc1ncccc1CNc1ccc(Cc2c[nH]c3ncc(C#N)cc23)cn1 [P-0287, 3-{6-[(2-Methoxy-pyridin-3-ylmethyl)-amino]-pyridin-3-ylmethyl}-1H-pyrrolo[2,3-b]pyridine-5-carbonitrile]
